The numbers were not newly measured in patent US20090285770A1, “Topical Compositions for Promoting Homeostasis of the Skin” (L'Oreal, priority 2005, published 2009), which cites them from elsewhere.

The subject of one series is P1 integrins. The settings on record: applied to skin ex vivo.
The test system of series [1] is β1 integrins. The settings on record: cells in culture.
In series [2] the test system is β1 integrins.
The next series deals with (6 integrins). The settings on record: fibroblasts and keratinocytes in culture.
The subject of series [3] is α2, α3, α6, αv and β1 integrins. The settings on record: keratinocytes in culture or reconstructed skins.

Read-outs that look alike come from different tables or passages of the source. Ends that are not written are not given here.

“GPQGPQ [COLLAXYL, collagen mimetic hexapeptide sold by Vincience]”: the “expression of P1 integrins” value in the series with P1 integrins is “stimulates the expression of P1 integrins”.

In the case of “KLDAPT [VINCI 02, fibronectin mimetic hexapeptide sold by Vincience]”, the “expression of β1 integrins” value in the series on β1 integrins [1] is “stimulates the expression of β1 integrins”.

For the substance “RDFTKATNIRLRFLR [VINCI 01, laminin mimetic oligopeptide sold by Vincience]”, the “expression of β1 integrins” value with β1 integrins [2] is “stimulates the expression of β1 integrins”.

For the substance SERILESINE, the “expression of (6 integrins)” value in the series on (6 integrins) is listed as “increasing the expression of (6 integrins”.

As to copper gluconate, the “expression of integrins, in particular the α2, α3, α6, αv and β1 integrins” value (“expression of integrins” for short) in series [3] was “capable of increasing the expression of integrins”.

In the case of manganese gluconate, the “expression of integrins” value in series [3] is on record as “capable of increasing the expression of integrins”.

Turning to zinc gluconate, in series [3], the “expression of integrins” value is listed as “capable of increasing the expression of integrins”.
